Source: US8247349B2, “Enhanced abscisic acid analog and fertilizer performance” (Valent BioSciences Corporation, priority 2007, dated 2012)
Where two headings read alike, the source gives them in different places.

Key:
[1] = system: tomato plant leaves; conditions: in vivo
[2] = system: tomato leaf transpiration; test: Tomato leaf transpiration inhibition after foliar application (LI-1600 Steady State Porometer); format: in vivo, Tomato (variety: Rutgers)
[3] = system: tomato plant leaves; test: Phytotoxicity study: number of injured leaves after foliar application; conditions: for Number of injured leaves: 25 ppm ABA analog alone, one foliar application; for Phytotoxicity (in words): 25 ppm alone, 10-day experimental period

`N.N.O=S(=O)(O)O` [(NH4)2SO4, ammonium sulfate] was tested, and the “Phytotoxicity (in words)” value [1] was “showed phytotoxicity”.
`C#CC1(C)CC(=O)C=C(C)C1(O)/C=C/C(C)=C\C(=O)OC` (centres unmarked) [PBI-429, 8′ acetylene-ABA methyl ester] was tested, and the “Transpiration rate (% of control)” value ([2]; 25 ppm alone, 1 day after treatment) was 60 % of control, the “Transpiration rate (% of control)” value ([2]; 25 ppm alone, 2 days after treatment) was 42 % of control and the “Transpiration rate (% of control)” value ([2]; 25 ppm alone, 3 days after treatment) was 64 % of control. The “Transpiration rate (% of control)” value ([2]; 25 ppm alone, 4 days after treatment) was 63 % of control, the “Transpiration rate (% of control)” value ([2]; 25 ppm alone, 7 days after treatment) was 87 % of control and the “Transpiration rate (% of control), Average” value ([2]; 25 ppm alone, average over days 1-7) was 63 % of control. For the same molecule, the “Number of injured leaves” value ([3]; 5 days after treatment) was 0.0, the “Number of injured leaves” value ([3]; 10 days after treatment) was 0.0 and the “Phytotoxicity (in words)” value [3] was “did not show any phytotoxicity”.
In the case of `C#CC1(C)CC(=O)C=C(C)C1(O)C=CC(C)=CC(=O)O` (centres unmarked) [PBI-524, 8′ acetylene-ABA, acid], the “Number of injured leaves” value ([3]; 5 days after treatment) is reported as 0.0, the “Number of injured leaves” value ([3]; 10 days after treatment) is reported as 0.0 and the “Phytotoxicity (in words)” value [3] is reported as “did not show any phytotoxicity”.
For `NC(N)=O` [Urea, urea], the “Transpiration rate (% of control)” value ([2]; 1 mM alone, 1 day after treatment) was 103 % of control, the “Transpiration rate (% of control)” value ([2]; 1 mM alone, 2 days after treatment) was 98 % of control and the “Transpiration rate (% of control)” value ([2]; 1 mM alone, 3 days after treatment) was 98 % of control. For the same molecule, the “Transpiration rate (% of control)” value ([2]; 1 mM alone, 4 days after treatment) was 100 % of control, the “Transpiration rate (% of control)” value ([2]; 10 mM alone, 1 day after treatment) was 101 % of control and the “Transpiration rate (% of control)” value ([2]; 10 mM alone, 2 days after treatment) was 103 % of control. The “Transpiration rate (% of control)” value ([2]; 10 mM alone, 3 days after treatment) was 106 % of control, the “Transpiration rate (% of control)” value ([2]; 10 mM alone, 4 days after treatment) was 101 % of control and the “Transpiration rate (% of control)” value ([2]; 100 mM alone, 1 day after treatment) was 102 % of control. The “Transpiration rate (% of control)” value ([2]; 100 mM alone, 2 days after treatment) was 102 % of control, the “Transpiration rate (% of control)” value ([2]; 100 mM alone, 3 days after treatment) was 107 % of control and the “Transpiration rate (% of control)” value ([2]; 100 mM alone, 4 days after treatment) was 102 % of control. The “Effect on tomato leaf transpiration (in words)” value ([2]; 1, 10 or 100 mM alone, 4-day experimental period) was “Neither urea nor ammonium nitrate at any of three tested concentrations significantly reduced tomato leaf transpiration”.
